Test results published in patent publication US20040138160A1, “Preventive/therapeutic method for cancer” (priority 2001, published 2004).
One block for each compound: values may come before it.

Columns and labels:
EGFR = EGFR (Homo sapiens, UniProt P00533); assay: cell-based
Procedure: (§1) For consideration of the action on a receptor-type tyrosine kinase, A-431 cells or NIH3T3 cells were sown in a 24 multi-well plate (2×10^5 cells/well) and cultured overnight in a carbon dioxide gas incubator (5% CO2, 37° C.). The medium was changed to a serum-free medium and the cells were further incubated for one day. […] The culture medium was removed 5 min later and SDS sample buffer was added to give a cell lysate (200 μL). For consideration of the action on a non-receptor type tyrosine kinase, A431 (Jak1), Jurkat (Src) or Namalwa cells (Blk) were sown in a 6-well multi-well plate (5×10^5 cells/well) and cultured overnight in a carbon dioxide gas incubator (5% CO2, 37° C.).

Jak1 = Jak1 (Homo sapiens, UniProt P23458); assay: cell-based
Procedure: as §1

blk = blk (Homo sapiens, UniProt P51451); assay: cell-based
Procedure: as §1

FGFR = conditions: read-out: IC50 (μmol/L) FGFR; NIH3T3 cells, FGF 20 ng/mL; compound 2 hr
Procedure: as §1

PDGFR = conditions: read-out: IC50 (μmol/L) PDGFR; NIH3T3 cells, PDGF 20 ng/mL; compound 2 hr
Procedure: as §1

[1] = system: tyrosine kinase activity other than HER2; conditions: read-out: IC50 value for tyrosine kinase activity other than HER2; in every case (EGFR, FGFR, PDGFR, Jak1, Src, blk)
Procedure: as §1

[2] = system: HER2 high expression human breast cancer cells BT-474; conditions: 1 μmol/L, cultured ~5 days
Procedure: After the culture, the culture medium was removed and a cell suspension was prepared by a trypsin treatment and the cells were fixed with 70% ethanol. The DNA of the cells was stained with propidium iodide and the DNA amount was measured by a flow cytometer. The cells with a decreased amount of DNA are apoptotic (cell death) cells.

HER2 [3] = target: T1, HER2 (Homo sapiens, UniProt P04626); conditions: BT-474 tumor in nude mice; 20 mg/kg/day orally 14 days, then 10 mg/kg; tumor sampled four hours later
Procedure: Four hours later, the tumor was sampled and a tumor homogenate was prepared.

[4] = system: HER2 high expression human breast cancer cell BT-474; assay: Anti-tumor effect, combined use (BT-474 cancer-bearing nude mice); format: in vivo, mouse
From the text: Formula: Tumor volume=longer diameter×shorter diameter×shorter diameter×(1/2)

[5] = system: HER2 expression human non-parvicellular lung cancer A549 cells; assay: Anti-tumor effect against HER2 expression tumor in nude mouse: A549; format: in vivo; conditions: HER2 score 1+, dose 20 mg/kg/day orally, divided into two per day, 14 days
Procedure: Immediately after transplantation and day 7 after the transplantation, estradiol dipropionate (5 mg/kg solution, 50 μL) was intramuscularly administered to the hind leg with the aim of enhancing the survival rate of the tumor. […] HER2 high expression human gastric cancer cells 4-1ST was a in vivo subcultured tumor and seed tumor piece (ca. 50 mm^3) was subcutaneously transplanted into the nude mouse.
(§2) Formula: tumor volume=longer diameter×shorter diameter×shorter diameter×(1/2)

[6] = system: HER2 expression human kidney cancer ACHN cells; conditions: renal, HER2 score 1+; dose 20 mg/kg/day orally, divided into two per day, 14 days
Procedure: (§3) Immediately after transplantation and day 7 after the transplantation, estradiol dipropionate (5 mg/kg solution, 50 μL) was intramuscularly administered to the hind leg with the aim of enhancing the survival rate of the tumor. HER2 expression human non-parvicellular lung cancer A549 cells were suspended in Matrigel solution and 5,000,000 cells were subcutaneously transplanted into the chest of female BALB/c nude mouse (6 weeks of age). HER2 expression human kidney cancer ACHN cells (2,000,000 cells) were subcutaneously transplanted into the chest of nude mouse. HER2 high expression human gastric cancer cells 4-1ST was a in vivo subcultured tumor and seed tumor piece (ca. 50 mm^3) was subcutaneously transplanted into the nude mouse.
(§4) An increase in the tumor volume from that before administration to that on the next day of the final administration was compared to that of the control group and an anti-tumor effect was studied. In addition, the tumor volume was calculated from the following equation:
as §2
(§5) A ratio of the value obtained by subtracting a tumor volume on the day of the administration initiation from the tumor volume on the next day of the completion of the administration in the control group, and the value obtained by subtracting the tumor volume on the day of the administration initiation from the tumor volume on the next day of the completion of the administration was determined as a growth rate (T/C (%)).

[7] = system: HER2 high expression human breast cancer cells BT-474; conditions: HER2 score 3+, dose 20 mg/kg/day orally, divided into two per day, 14 days
Procedure: as §3, §4, §2, §5

[8] = system: HER2 high expression human gastric cancer cells 4-1ST; conditions: HER2 score 3+, dose 15 mg/kg/day orally, divided into two per day, 14 days
Procedure: as §3, §4, §2, §5

MDA-MB-231 = conditions: breast, HER2 score 0; dose 20 mg/kg/day orally, divided into two per day, 14 days
Procedure: as §4, §2, §5

[9] = system: HER2 expression cells (Ma-46); conditions: cultured 3 days, cells counted
Procedure: (§6) 1) Cell growth inhibitory action; Each cell line was sown in a 24-well-multi-well plate (5×10^4 cells/well) and cultured overnight in a carbon dioxide gas incubator (5% CO2, 37° C.).

[10] = system: HER2 non-expression cells (Ma-1); conditions: cultured 3 days, cells counted
Procedure: as §6

[11] = system: HER2/EGF-R co-expression cells (A549); conditions: cultured 3 days, cells counted
Procedure: as §6

Akt = assay: cells; conditions: Homo sapiens, BT-474, 2 h, read-out: inhibition of activation of Akt (IC50 value)
[12] = system: human breast cancer cell line BT-474; assay: Inhibitory action on breast cancer cell line BT-474 proliferation in vitro (SRB); format: cell-based; conditions: heregulin 0.04 μg/ml, cultured 5 days, read-out: Inhibition of cell proliferation BT-474 (IC50:μM)
Procedure: Cell suspension of human breast cancer cell line BT-474 (100 μl) suspended at 1,000 cells/100 μl), was placed in a 96-well microwell plate and cultured at 37° C. in a 5% carbon dioxide gas incubator. On the following day, 100 μl of a solution of each test compound, previously diluted 2-fold with a heregulin solution prepared to a final concentration of 0.04 μg/ml, was added, and the cells were cultured for 5 days. After the culture medium containing the test compound was removed, the cells were washed and fixed with 5% trichloroacetic acid, after which a 0.4% (w/v) SRB solution (dissolved in 1% acetic acid) was added to fix and stain the cells (Skehan et al., Journal of the National Cancer Institute, Vol. 82, pp. 1107-1112, 1990). After the pigment solution was removed and the plate was washed with a 1% acetic acid solution, 100 μl of an extractant (10 mM Tris buffer solution) was added to extract and dissolve the pigment; absorbance was measured at an absorption wavelength of 550 nm to quantify the amount of cells as protein content. Taking as 100% the absorbance for the control group, which received no test compound solution, the ratio of the absorbance for each treatment group was determined, and the compound concentration required to achieve 50% suppression of the residual cell content relative to the control (IC50 value) was calculated.

HER2 [13] = target: T1, HER2; assay: Suppression of receptor tyrosine-phosphorylation in human breast cancer cells (intracellular HER2 phosphorylation, MCF-7, heregulin stimulation); format: cell-based; set-up: endogenous in cells; host or cells: MCF-7; conditions: MCF-7 cells; test compound 2 hours, then heregulin 0.8 μg/ml 5 minutes; read-out: Intracellular HER2 phosphorylation inhibition MCF-7 (IC50:μM)
Procedure: Cell suspension of Human breast cancer cell line MCF-7 (500 μl), suspended at 300,000 cells/0.5 mL, was placed in a 24-well plate and cultured at 37° C. in a 5% carbon dioxide gas incubator. On the following day, 250 μl of a solution of 4-fold serially diluted test compound was added. After 2 hours, 250 μl of a heregulin solution, prepared to a final concentration of 0.8 μg/ml, was added. After 5 minutes, a buffer solution for lysis of extract solution was added to stop the reaction and to extract and yield a cell-lysate protein. After this cell-lysate protein was subjected to SDS-polyacrylamide gel electrophoresis to separate the protein, the protein in the gel was blotted onto a nylon filter. This filter was reacted with an anti-phosphotyrosine specific antibody; the portion containing phosphotyrosine on the filter was luminated using the ECL method to photosensitize an X-ray film. The amount of the film photosensitization was determined using an image analyzer.

T1 sequence (P04626 23-1255): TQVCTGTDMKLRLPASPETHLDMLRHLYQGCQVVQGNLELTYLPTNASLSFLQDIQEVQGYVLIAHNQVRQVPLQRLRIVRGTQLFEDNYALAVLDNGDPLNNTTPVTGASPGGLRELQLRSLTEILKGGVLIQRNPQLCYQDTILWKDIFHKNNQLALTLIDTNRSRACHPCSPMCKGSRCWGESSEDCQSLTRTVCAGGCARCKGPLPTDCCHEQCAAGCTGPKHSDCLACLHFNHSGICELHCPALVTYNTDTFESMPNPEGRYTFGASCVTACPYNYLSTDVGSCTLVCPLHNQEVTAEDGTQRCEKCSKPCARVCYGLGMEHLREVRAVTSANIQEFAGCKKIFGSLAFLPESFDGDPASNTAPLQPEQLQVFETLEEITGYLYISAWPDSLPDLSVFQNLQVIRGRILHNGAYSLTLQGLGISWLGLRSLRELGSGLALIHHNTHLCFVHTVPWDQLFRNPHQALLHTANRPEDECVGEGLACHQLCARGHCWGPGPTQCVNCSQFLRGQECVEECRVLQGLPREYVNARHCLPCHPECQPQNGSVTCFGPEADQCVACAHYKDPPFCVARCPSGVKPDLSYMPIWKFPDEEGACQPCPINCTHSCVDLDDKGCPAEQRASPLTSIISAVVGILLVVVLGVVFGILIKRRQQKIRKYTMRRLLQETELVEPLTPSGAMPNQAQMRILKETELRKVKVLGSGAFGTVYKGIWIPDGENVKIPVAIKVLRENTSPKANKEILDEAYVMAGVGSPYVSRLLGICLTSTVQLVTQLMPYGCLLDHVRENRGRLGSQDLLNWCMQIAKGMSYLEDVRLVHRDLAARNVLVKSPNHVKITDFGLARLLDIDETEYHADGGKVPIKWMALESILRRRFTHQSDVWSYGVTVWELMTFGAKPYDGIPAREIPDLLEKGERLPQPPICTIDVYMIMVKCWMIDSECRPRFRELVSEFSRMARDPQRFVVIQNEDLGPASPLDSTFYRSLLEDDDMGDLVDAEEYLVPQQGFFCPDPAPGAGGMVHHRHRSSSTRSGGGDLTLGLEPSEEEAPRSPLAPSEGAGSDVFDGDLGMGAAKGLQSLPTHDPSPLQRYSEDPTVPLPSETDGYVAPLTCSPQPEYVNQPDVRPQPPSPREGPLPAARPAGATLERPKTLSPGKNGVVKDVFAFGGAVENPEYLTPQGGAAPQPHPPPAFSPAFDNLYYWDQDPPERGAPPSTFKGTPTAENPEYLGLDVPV
Chain of EGFR (P00533 25-1210): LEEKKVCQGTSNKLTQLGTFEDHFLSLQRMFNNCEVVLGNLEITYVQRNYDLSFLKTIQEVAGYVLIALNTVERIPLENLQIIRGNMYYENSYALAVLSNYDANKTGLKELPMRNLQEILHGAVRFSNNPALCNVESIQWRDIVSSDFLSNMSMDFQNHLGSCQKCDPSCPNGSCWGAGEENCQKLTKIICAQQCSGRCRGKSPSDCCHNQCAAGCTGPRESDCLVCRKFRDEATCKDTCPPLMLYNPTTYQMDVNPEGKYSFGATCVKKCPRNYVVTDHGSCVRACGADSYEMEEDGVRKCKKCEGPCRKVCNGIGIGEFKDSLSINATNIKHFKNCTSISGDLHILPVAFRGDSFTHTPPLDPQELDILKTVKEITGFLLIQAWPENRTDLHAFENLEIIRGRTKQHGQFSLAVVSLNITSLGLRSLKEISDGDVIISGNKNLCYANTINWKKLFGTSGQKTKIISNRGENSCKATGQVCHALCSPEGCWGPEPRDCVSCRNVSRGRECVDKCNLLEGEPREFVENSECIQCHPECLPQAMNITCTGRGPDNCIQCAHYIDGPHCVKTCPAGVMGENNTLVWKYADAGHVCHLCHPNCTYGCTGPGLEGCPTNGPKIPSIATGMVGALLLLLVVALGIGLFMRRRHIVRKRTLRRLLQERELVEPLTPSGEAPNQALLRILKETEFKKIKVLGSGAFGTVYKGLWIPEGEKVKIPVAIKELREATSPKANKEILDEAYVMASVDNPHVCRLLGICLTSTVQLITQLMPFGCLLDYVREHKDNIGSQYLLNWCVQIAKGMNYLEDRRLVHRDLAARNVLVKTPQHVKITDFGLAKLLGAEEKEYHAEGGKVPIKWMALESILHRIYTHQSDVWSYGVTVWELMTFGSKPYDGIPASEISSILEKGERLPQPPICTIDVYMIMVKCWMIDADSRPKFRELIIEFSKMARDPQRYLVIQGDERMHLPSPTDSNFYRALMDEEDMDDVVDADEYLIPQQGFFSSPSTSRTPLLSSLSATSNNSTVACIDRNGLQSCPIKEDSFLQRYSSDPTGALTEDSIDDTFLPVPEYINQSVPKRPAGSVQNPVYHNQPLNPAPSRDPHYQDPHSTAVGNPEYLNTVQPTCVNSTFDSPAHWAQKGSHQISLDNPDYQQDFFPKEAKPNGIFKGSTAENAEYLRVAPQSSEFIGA
Chain of blk (P51451 whole entry): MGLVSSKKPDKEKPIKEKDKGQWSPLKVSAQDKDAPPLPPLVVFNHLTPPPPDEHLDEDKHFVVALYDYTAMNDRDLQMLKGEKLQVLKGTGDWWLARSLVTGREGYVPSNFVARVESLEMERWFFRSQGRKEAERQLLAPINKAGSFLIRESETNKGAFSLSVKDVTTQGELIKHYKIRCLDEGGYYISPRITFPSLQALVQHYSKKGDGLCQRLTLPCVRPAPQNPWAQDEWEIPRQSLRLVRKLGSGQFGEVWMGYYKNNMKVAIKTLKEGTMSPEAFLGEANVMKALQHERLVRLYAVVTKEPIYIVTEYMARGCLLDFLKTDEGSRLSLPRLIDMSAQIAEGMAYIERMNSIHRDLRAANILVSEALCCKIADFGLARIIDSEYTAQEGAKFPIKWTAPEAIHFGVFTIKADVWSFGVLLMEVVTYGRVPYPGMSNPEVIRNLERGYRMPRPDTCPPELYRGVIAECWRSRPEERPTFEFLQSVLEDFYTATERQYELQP
Chain of Jak1 (P23458 whole entry): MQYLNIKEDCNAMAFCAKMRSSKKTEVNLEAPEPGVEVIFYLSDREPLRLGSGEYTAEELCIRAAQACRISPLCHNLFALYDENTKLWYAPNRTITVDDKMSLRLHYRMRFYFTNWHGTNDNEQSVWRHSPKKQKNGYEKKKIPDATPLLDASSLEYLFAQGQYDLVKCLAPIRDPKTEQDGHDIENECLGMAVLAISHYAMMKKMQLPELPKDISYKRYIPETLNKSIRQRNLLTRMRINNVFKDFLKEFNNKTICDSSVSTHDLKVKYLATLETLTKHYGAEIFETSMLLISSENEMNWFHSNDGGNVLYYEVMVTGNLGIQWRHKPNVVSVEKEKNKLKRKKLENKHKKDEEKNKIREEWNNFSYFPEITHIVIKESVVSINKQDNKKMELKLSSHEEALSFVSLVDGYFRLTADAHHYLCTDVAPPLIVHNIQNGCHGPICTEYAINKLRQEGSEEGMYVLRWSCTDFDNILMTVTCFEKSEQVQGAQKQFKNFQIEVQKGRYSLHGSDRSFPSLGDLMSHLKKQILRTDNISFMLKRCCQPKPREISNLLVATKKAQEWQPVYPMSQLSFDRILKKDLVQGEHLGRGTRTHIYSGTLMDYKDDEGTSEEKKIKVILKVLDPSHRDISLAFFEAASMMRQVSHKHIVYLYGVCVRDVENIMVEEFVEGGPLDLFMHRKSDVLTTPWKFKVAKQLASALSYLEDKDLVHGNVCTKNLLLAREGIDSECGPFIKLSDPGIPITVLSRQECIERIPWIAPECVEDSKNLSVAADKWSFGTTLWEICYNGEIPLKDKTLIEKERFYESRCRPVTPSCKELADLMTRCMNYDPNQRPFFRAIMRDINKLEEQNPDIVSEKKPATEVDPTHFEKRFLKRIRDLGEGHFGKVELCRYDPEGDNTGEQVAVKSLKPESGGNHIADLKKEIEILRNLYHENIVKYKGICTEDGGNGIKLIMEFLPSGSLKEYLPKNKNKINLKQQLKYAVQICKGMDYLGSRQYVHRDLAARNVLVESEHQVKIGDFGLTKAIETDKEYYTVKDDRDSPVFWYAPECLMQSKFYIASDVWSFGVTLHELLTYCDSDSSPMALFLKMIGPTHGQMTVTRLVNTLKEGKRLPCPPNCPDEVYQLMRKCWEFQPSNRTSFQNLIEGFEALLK

SMILES: FC(F)(F)c1ccc(/C=C/c2nc(COc3ccc(CCCCn4ccnn4)cc3)co2)cc1 [Compound B4, 1-(4-{4-[(2-{(E)-2-[4-(trifluoromethyl)phenyl]ethenyl}-1,3-oxazol-4-yl)methoxy]phenyl}butyl)-1H-1,2,3-triazole]
IC50 (EGFR): > 25 µM
IC50 (Jak1): > 25 µM
IC50 (blk): > 25 µM
IC50 (FGFR): > 25 µmol/L
IC50 (PDGFR): > 25 µmol/L
IC50 [1]: > 25 µM
cell death induction [2]: induced cell death
intra-tumor HER2 phosphorylation (per tumor weight), % of the control group (HER2 [3]): 13%
growth rate T/C (%) ([4]; compound B4 20 mg/kg/day orally, divided into two per day, 14 days, trastuzumab 10 mg/kg intraperitoneally twice a week, 2 weeks, or both): −18%
cases with significant decrease in the tumor volume ([4]; same regimens as T/C): 5 cases out of 5 cases
decrease in the tumor volume (% reduction) ([4]; same regimens as T/C): 13-30%
Compound B4 T/C (%), A549 [5]: 22%
Compound B4 T/C (%), ACHN [6]: −16%
Compound B4 T/C (%), BT-474 [7]: −18%
Compound B4 T/C (%), 4-1ST [8]: 4%
Compound B4 T/C (%), MDA-MB-231 (MDA-MB-231): 87%
cell growth inhibitory action on HER2 expression cells (Ma-46) [9]: strong cell growth inhibitory action
cell growth inhibitory action on HER2 non-expression cells (Ma-1) [10]: did not show a cell growth inhibitory action
cell growth inhibitory action on HER2/EGF-R co-expression cells (A549) [11]: strong cell growth inhibitory action
IC50 (Akt): 0.0019 µM

IC50 [12]: < 0.05 µM
IC50 (HER2 [13]): 1.9 µM
SMILES: Cc1cccc(/C=C/c2nc(COc3ccc(CCCCc4c[nH]c(CC(O)CO)n4)cc3)co2)c1 (stereo not shown) [Compound B22, 3-(4-{4-[4-({2-[(E)-2-(3-methylphenyl)ethenyl]-1,3-oxazol-4-yl}methoxy)phenyl]butyl}-1H-imidazol-2-yl)-1,2-propanediol]
